US20250230193A1, “CYCLIC COMPOUND HAVING SELECTIVE KRAS INHIBITORY EFFECT ON HRAS AND NRAS” (CHUGAI SEIYAKU KABUSHIKI KAISHA, priority 2022, published 2025)
*1 amine or outer side, *2 acyl side, *3 side chain or, on linkers, in order; H or OH if unused. Where a SMILES comes first, the peptide text is derived from it. Bridges are numbered along the chain shown (N, C = ends). [ ]: non-standard residue; d: D form. The star is where a group is joined. hPhe(3-Cl-4-CF3) = N[C@@H](CCc1ccc(C(F)(F)F)c(Cl)c1)C(=O)O; X23 = CC(C)CN([C@@H](Cc1ccc(C(F)(F)F)cc1)C(=O)[*:2])[*:1]; X17 = CCCCN([C@@H](Cc1ccc(C(F)(F)F)cc1)C(=O)[*:2])[*:1]; X41 = Cc1ccc(C[C@@H](C(=O)[*:2])N(CCC(F)(F)F)[*:1])cc1; X27 = Cc1ccc(C[C@@H](C(=O)[*:2])N(CC2CCCCC2)[*:1])cc1; X29 = Cc1ccc(C[C@@H](C(=O)[*:2])N(CC2CCCC2)[*:1])cc1; X43 = Cc1ccc(C[C@@H](C(=O)[*:2])N(CC2CCC2)[*:1])cc1; X26 = COCCCN([C@@H](Cc1ccc(C)cc1)C(=O)[*:2])[*:1]; X48 = C=CCCN([C@@H](Cc1ccc(C)cc1)C(=O)[*:2])[*:1]; X12 = COCCN([C@@H](Cc1ccc(C)cc1)C(=O)[*:2])[*:1]; X50 = C=CCN([C@@H](Cc1ccc(C)cc1)C(=O)[*:2])[*:1]; NMeGly(cPent) = CN[C@H](C(=O)O)C1CCCC1; NMeD = CN[C@@H](CC(=O)O)C(=O)O; NMeL = CN[C@@H](CC(C)C)C(=O)O; Morpholide = C1CN(*)CCO1; NMeA = CN[C@@H](C)C(=O)O; Ac5c = NC1(C(=O)O)CCCC1; Aze = O=C(O)[C@@H]1CCN1; Sar = CNCC(=O)O

Columns and labels:
[1] = target: GDP-bound NRAS wild-type protein (Homo sapiens, UniProt P01111); assay: Binding to NRAS by surface plasmon resonance (SPR), Single Cycle Kinetics; conditions: KD ratio NRAS/KRAS, SPR
Chain of GDP-bound NRAS wild-type protein (P01111 whole entry): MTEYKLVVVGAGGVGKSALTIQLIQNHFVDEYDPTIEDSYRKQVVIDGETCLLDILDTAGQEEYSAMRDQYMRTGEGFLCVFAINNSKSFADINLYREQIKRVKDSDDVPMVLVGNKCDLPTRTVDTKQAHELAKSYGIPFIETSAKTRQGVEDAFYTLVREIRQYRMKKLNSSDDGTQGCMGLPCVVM

[2] = target: GDP-bound HRAS wild-type protein (Homo sapiens, UniProt P01112); assay: Binding to HRAS by surface plasmon resonance (SPR), Single Cycle Kinetics; conditions: KD ratio HRAS/KRAS, SPR
Chain of GDP-bound HRAS wild-type protein (P01112 whole entry): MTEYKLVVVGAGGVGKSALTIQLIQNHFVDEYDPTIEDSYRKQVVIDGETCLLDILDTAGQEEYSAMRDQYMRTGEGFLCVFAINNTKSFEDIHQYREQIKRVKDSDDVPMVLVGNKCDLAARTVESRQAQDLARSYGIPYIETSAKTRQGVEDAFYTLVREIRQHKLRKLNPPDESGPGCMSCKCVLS

SMILES	NRAS/KRAS (ratio of KD for GDP-bound NRAS wild-type to KD for KRAS) [1]	HRAS/KRAS (ratio of KD for GDP-bound HRAS wild-type to KD for KRAS) [2]
CC[C@H](C)[C@@H]1NC(=O)[C@H](CC(C)C)N(C)C(=O)C[C@@H](C(=O)N2CCOCC2)N(C)C(=O)[C@H](C2CCCC2)N(C)C(=O)C2(CCCC2)NC(=O)[C@@H]2CCCN2C(=O)[C@H](CCc2ccc(C(F)(F)F)c(Cl)c2)NC(=O)CN(C)C(=O)[C@H](Cc2ccc(C)cc2)N(CCC(F)(F)F)C(=O)[C@@H]2CCN2C(=O)[C@H](C)N(C)C1=O [PP0091] ([NMeL]I[NMeA][Aze][X41][Sar][hPhe(3-Cl-4-CF3)]P[Ac5c][NMeGly(cPent)][NMeD]-Morpholide; lactam N-11)	C (A compound having a KD ratio of 0.1 or more and less than 3 is denoted as C)	B (a compound having 3 or more and less than 10 is denoted as B)
CC[C@H](C)[C@@H]1NC(=O)[C@H](CC(C)C)N(C)C(=O)C[C@@H](C(=O)N2CCOCC2)N(C)C(=O)[C@H](C2CCCC2)N(C)C(=O)C2(CCCC2)NC(=O)[C@@H]2CCCN2C(=O)[C@H](CCc2ccc(C(F)(F)F)c(Cl)c2)NC(=O)CN(C)C(=O)[C@H](Cc2ccc(C)cc2)N(CCOC)C(=O)[C@@H]2CCN2C(=O)[C@H](C)N(C)C1=O [PP0092] ([NMeL]I[NMeA][Aze][X12][Sar][hPhe(3-Cl-4-CF3)]P[Ac5c][NMeGly(cPent)][NMeD]-Morpholide; lactam N-11)	C (A compound having a KD ratio of 0.1 or more and less than 3 is denoted as C)	C (A compound having a KD ratio of 0.1 or more and less than 3 is denoted as C)
CC[C@H](C)[C@@H]1NC(=O)[C@H](CC(C)C)N(C)C(=O)C[C@@H](C(=O)N2CCOCC2)N(C)C(=O)[C@H](C2CCCC2)N(C)C(=O)C2(CCCC2)NC(=O)[C@@H]2CCCN2C(=O)[C@H](CCc2ccc(C(F)(F)F)c(Cl)c2)NC(=O)CN(C)C(=O)[C@H](Cc2ccc(C)cc2)N(CCCOC)C(=O)[C@@H]2CCN2C(=O)[C@H](C)N(C)C1=O [PP0093] ([NMeL]I[NMeA][Aze][X26][Sar][hPhe(3-Cl-4-CF3)]P[Ac5c][NMeGly(cPent)][NMeD]-Morpholide; lactam N-11)	C (A compound having a KD ratio of 0.1 or more and less than 3 is denoted as C)	B (a compound having 3 or more and less than 10 is denoted as B)
CC[C@H](C)[C@@H]1NC(=O)[C@H](CC(C)C)N(C)C(=O)C[C@@H](C(=O)N2CCOCC2)N(C)C(=O)[C@H](C2CCCC2)N(C)C(=O)C2(CCCC2)NC(=O)[C@@H]2CCCN2C(=O)[C@H](CCc2ccc(C(F)(F)F)c(Cl)c2)NC(=O)CN(C)C(=O)[C@H](Cc2ccc(C)cc2)N(CC2CCC2)C(=O)CN(C)C(=O)CN(C)C1=O [PP0095] ([NMeL]I[Sar][Sar][X43][Sar][hPhe(3-Cl-4-CF3)]P[Ac5c][NMeGly(cPent)][NMeD]-Morpholide; lactam N-11)	C (A compound having a KD ratio of 0.1 or more and less than 3 is denoted as C)	C (A compound having a KD ratio of 0.1 or more and less than 3 is denoted as C)
CC[C@H](C)[C@@H]1NC(=O)[C@H](CC(C)C)N(C)C(=O)C[C@@H](C(=O)N2CCOCC2)N(C)C(=O)[C@H](C2CCCC2)N(C)C(=O)C2(CCCC2)NC(=O)[C@@H]2CCCN2C(=O)[C@H](CCc2ccc(C(F)(F)F)c(Cl)c2)NC(=O)CN(C)C(=O)[C@H](Cc2ccc(C)cc2)N(CC2CCCC2)C(=O)CN(C)C(=O)CN(C)C1=O [PP0096] ([NMeL]I[Sar][Sar][X29][Sar][hPhe(3-Cl-4-CF3)]P[Ac5c][NMeGly(cPent)][NMeD]-Morpholide; lactam N-11)	C (A compound having a KD ratio of 0.1 or more and less than 3 is denoted as C)	C (A compound having a KD ratio of 0.1 or more and less than 3 is denoted as C)
CC[C@H](C)[C@@H]1NC(=O)[C@H](CC(C)C)N(C)C(=O)C[C@@H](C(=O)N2CCOCC2)N(C)C(=O)[C@H](C2CCCC2)N(C)C(=O)C2(CCCC2)NC(=O)[C@@H]2CCCN2C(=O)[C@H](CCc2ccc(C(F)(F)F)c(Cl)c2)NC(=O)CN(C)C(=O)[C@H](Cc2ccc(C)cc2)N(CC2CCCCC2)C(=O)CN(C)C(=O)CN(C)C1=O [PP0097] ([NMeL]I[Sar][Sar][X27][Sar][hPhe(3-Cl-4-CF3)]P[Ac5c][NMeGly(cPent)][NMeD]-Morpholide; lactam N-11)	C (A compound having a KD ratio of 0.1 or more and less than 3 is denoted as C)	C (A compound having a KD ratio of 0.1 or more and less than 3 is denoted as C)
C=CCN1C(=O)CN(C)C(=O)CN(C)C(=O)[C@H]([C@@H](C)CC)NC(=O)[C@H](CC(C)C)N(C)C(=O)C[C@@H](C(=O)N2CCOCC2)N(C)C(=O)[C@H](C2CCCC2)N(C)C(=O)C2(CCCC2)NC(=O)[C@@H]2CCCN2C(=O)[C@H](CCc2ccc(C(F)(F)F)c(Cl)c2)NC(=O)CN(C)C(=O)[C@@H]1Cc1ccc(C)cc1 [PP0100] ([NMeL]I[Sar][Sar][X50][Sar][hPhe(3-Cl-4-CF3)]P[Ac5c][NMeGly(cPent)][NMeD]-Morpholide; lactam N-11)	B (a compound having 3 or more and less than 10 is denoted as B)	C (A compound having a KD ratio of 0.1 or more and less than 3 is denoted as C)
C=CCCN1C(=O)CN(C)C(=O)CN(C)C(=O)[C@H]([C@@H](C)CC)NC(=O)[C@H](CC(C)C)N(C)C(=O)C[C@@H](C(=O)N2CCOCC2)N(C)C(=O)[C@H](C2CCCC2)N(C)C(=O)C2(CCCC2)NC(=O)[C@@H]2CCCN2C(=O)[C@H](CCc2ccc(C(F)(F)F)c(Cl)c2)NC(=O)CN(C)C(=O)[C@@H]1Cc1ccc(C)cc1 [PP0101] ([NMeL]I[Sar][Sar][X48][Sar][hPhe(3-Cl-4-CF3)]P[Ac5c][NMeGly(cPent)][NMeD]-Morpholide; lactam N-11)	B (a compound having 3 or more and less than 10 is denoted as B)	C (A compound having a KD ratio of 0.1 or more and less than 3 is denoted as C)
CC[C@H](C)[C@@H]1NC(=O)[C@H](CC(C)C)N(C)C(=O)C[C@@H](C(=O)N2CCOCC2)N(C)C(=O)[C@H](C2CCCC2)N(C)C(=O)C2(CCCC2)NC(=O)[C@@H]2CCCN2C(=O)[C@H](CCc2ccc(C(F)(F)F)c(Cl)c2)NC(=O)CN(C)C(=O)[C@H](Cc2ccc(C)cc2)N(CCC(F)(F)F)C(=O)CN(C)C(=O)CN(C)C1=O [PP0103] ([NMeL]I[Sar][Sar][X41][Sar][hPhe(3-Cl-4-CF3)]P[Ac5c][NMeGly(cPent)][NMeD]-Morpholide; lactam N-11)	B (a compound having 3 or more and less than 10 is denoted as B)	C (A compound having a KD ratio of 0.1 or more and less than 3 is denoted as C)
CC[C@H](C)[C@@H]1NC(=O)[C@H](CC(C)C)N(C)C(=O)C[C@@H](C(=O)N2CCOCC2)N(C)C(=O)[C@H](C2CCCC2)N(C)C(=O)C2(CCCC2)NC(=O)[C@@H]2CCCN2C(=O)[C@H](CCc2ccc(C(F)(F)F)c(Cl)c2)NC(=O)CN(C)C(=O)[C@H](Cc2ccc(C)cc2)N(CCOC)C(=O)CN(C)C(=O)CN(C)C1=O [PP0104] ([NMeL]I[Sar][Sar][X12][Sar][hPhe(3-Cl-4-CF3)]P[Ac5c][NMeGly(cPent)][NMeD]-Morpholide; lactam N-11)	B (a compound having 3 or more and less than 10 is denoted as B)	C (A compound having a KD ratio of 0.1 or more and less than 3 is denoted as C)
CC[C@H](C)[C@@H]1NC(=O)[C@H](CC(C)C)N(C)C(=O)C[C@@H](C(=O)N2CCOCC2)N(C)C(=O)[C@H](C2CCCC2)N(C)C(=O)C2(CCCC2)NC(=O)[C@@H]2CCCN2C(=O)[C@H](CCc2ccc(C(F)(F)F)c(Cl)c2)NC(=O)CN(C)C(=O)[C@H](Cc2ccc(C)cc2)N(CCCOC)C(=O)CN(C)C(=O)CN(C)C1=O [PP0105] ([NMeL]I[Sar][Sar][X26][Sar][hPhe(3-Cl-4-CF3)]P[Ac5c][NMeGly(cPent)][NMeD]-Morpholide; lactam N-11)	B (a compound having 3 or more and less than 10 is denoted as B)	C (A compound having a KD ratio of 0.1 or more and less than 3 is denoted as C)
CCCCN1C(=O)[C@@H]2CCN2C(=O)[C@H](C)N(C)C(=O)[C@H]([C@@H](C)CC)NC(=O)[C@H](CC(C)C)N(C)C(=O)C[C@@H](C(=O)N2CCOCC2)N(C)C(=O)[C@H](C2CCCC2)N(C)C(=O)C2(CCCC2)NC(=O)[C@@H]2CCCN2C(=O)[C@H](CCc2ccc(C(F)(F)F)c(Cl)c2)NC(=O)CN(C)C(=O)[C@@H]1Cc1ccc(C(F)(F)F)cc1 [PP0106] ([NMeL]I[NMeA][Aze][X17][Sar][hPhe(3-Cl-4-CF3)]P[Ac5c][NMeGly(cPent)][NMeD]-Morpholide; lactam N-11)	C (A compound having a KD ratio of 0.1 or more and less than 3 is denoted as C)	B (a compound having 3 or more and less than 10 is denoted as B)
CC[C@H](C)[C@@H]1NC(=O)[C@H](CC(C)C)N(C)C(=O)C[C@@H](C(=O)N2CCOCC2)N(C)C(=O)[C@H](C2CCCC2)N(C)C(=O)C2(CCCC2)NC(=O)[C@@H]2CCCN2C(=O)[C@H](CCc2ccc(C(F)(F)F)c(Cl)c2)NC(=O)CN(C)C(=O)[C@H](Cc2ccc(C(F)(F)F)cc2)N(CC(C)C)C(=O)[C@@H]2CCN2C(=O)[C@H](C)N(C)C1=O [PP0107] ([NMeL]I[NMeA][Aze][X23][Sar][hPhe(3-Cl-4-CF3)]P[Ac5c][NMeGly(cPent)][NMeD]-Morpholide; lactam N-11)	C (A compound having a KD ratio of 0.1 or more and less than 3 is denoted as C)	C (A compound having a KD ratio of 0.1 or more and less than 3 is denoted as C)
